Assay results published in ChEMBL document CHEMBL6153025, “Multidrug-resistant bacteria quorum-sensing inhibitors: A particular focus on Pseudomonasaeruginosa” (Eur J Med Chem, 2025).
≈ marks a conversion by molar mass, not a printed value.

Experiments:
Pseudomonas aeruginosa [1] = assay: Antibiofilm activity against Pseudomonas aeruginosa PAO1 assessed as inhibition of biofilm formation at 1 to 100 uM incubated for 24 hrs by crystal violet staining based assay relative to control; assay type: functional; parameters: scale not given: the % may be the effect or the level left; details: dose 1-100 µM
Pseudomonas aeruginosa [2] = assay: Inhibition of rhamnolipid production in Pseudomonas aeruginosa PAO1 incubated for 24 hrs by spectrophotometric analysis; assay type: functional, organism-based; details: PAO1, 24 h
Pseudomonas aeruginosa [3] = assay: Antibacterial activity against Pseudomonas aeruginosa PAO1 assessed as bacterial growth inhibition measured after 18 hrs by CLSI protocol based two-fold serial microdilution method; assay type: functional
Pseudomonas aeruginosa [4] = assay: Antivirulence activity against Pseudomonas aeruginosa PAO1 assessed as inhibition of pyocyanin production at 16 ug/ml relative to control; assay type: functional; parameters: scale not given: the % may be the effect or the level left; details: dose 16 µg/ml
Pseudomonas aeruginosa [5] = assay: Antivirulence activity against Pseudomonas aeruginosa PAO1 assessed as inhibition of pyocyanin production at 25 ug/ml incubated for 16 hrs under agitation by photometric analysis relative to control; assay type: functional; parameters: scale not given: the % may be the effect or the level left; details: dose 25 µg/ml
Pseudomonas aeruginosa [6] = assay: Anti-virulence effect in Pseudomonas aeruginosa PAO1 assessed as inhibition of rhamnolipid production at 10 uM relative to control; assay type: functional; parameters: scale not given: the % may be the effect or the level left
Pseudomonas aeruginosa [7] = assay: Antivirulence activity against Pseudomonas aeruginosa PA21 assessed as reduction in protease production incubated for 1 hr by absorbance based analysis relative to control; assay type: functional; parameters: scale not given: the % may be the effect or the level left
Pseudomonas aeruginosa [8] = assay: Antibiofilm activity against Pseudomonas aeruginosa PA22 assessed as reduction in biofilm formation at 1/2 sub-MIC doses incubated for 24 hrs by crystal violet staining based analysis relative to control; assay type: functional; parameters: scale not given: the % may be the effect or the level left
Pseudomonas aeruginosa [9] = assay: Antivirulence activity against Pseudomonas aeruginosa PA14 assessed as reduction in hemolysin activity incubated for 1 hr by absorbance based analysis relative to control; assay type: functional; parameters: scale not given: the % may be the effect or the level left
Pseudomonas aeruginosa [10] = assay: Antivirulence activity against Pseudomonas aeruginosa PAO1 assessed as reduction in hemolysin activity incubated for 1 hr by absorbance based analysis relative to control; assay type: functional; parameters: scale not given: the % may be the effect or the level left
Pseudomonas aeruginosa [11] = assay: Antivirulence activity against Pseudomonas aeruginosa PA14 assessed as reduction in protease production incubated for 1 hr by absorbance based analysis relative to control; assay type: functional; parameters: scale not given: the % may be the effect or the level left
Pseudomonas aeruginosa [12] = assay: Antivirulence activity against Pseudomonas aeruginosa PA22 assessed as reduction in protease production incubated for 1 hr by absorbance based analysis relative to control; assay type: functional; parameters: scale not given: the % may be the effect or the level left
Pseudomonas aeruginosa [13] = assay: Antivirulence activity against Pseudomonas aeruginosa PA14 assessed as reduction in pyocyanin production incubated for 1 hr by absorbance based analysis relative to control; assay type: functional; parameters: scale not given: the % may be the effect or the level left
Pseudomonas aeruginosa [14] = assay: Antivirulence activity against Pseudomonas aeruginosa PA23 assessed as reduction in hemolysin activity incubated for 1 hr by absorbance based analysis relative to control; assay type: functional; parameters: scale not given: the % may be the effect or the level left
Pseudomonas aeruginosa [15] = assay: Antibiofilm activity against Pseudomonas aeruginosa PA22 assessed as reduction in biofilm formation at 1/4 sub-MIC doses incubated for 24 hrs by crystal violet staining based analysis relative to control; assay type: functional; parameters: scale not given: the % may be the effect or the level left
Pseudomonas aeruginosa [16] = assay: Antibiofilm activity against Pseudomonas aeruginosa PA23 assessed as reduction in biofilm formation at 1/4 sub-MIC doses incubated for 24 hrs by crystal violet staining based analysis relative to control; assay type: functional; parameters: scale not given: the % may be the effect or the level left
Pseudomonas aeruginosa [17] = assay: Antivirulence activity against Pseudomonas aeruginosa PAO1 assessed as reduction in pyocyanin production incubated for 1 hr by absorbance based analysis relative to control; assay type: functional; parameters: scale not given: the % may be the effect or the level left
Pseudomonas aeruginosa [18] = assay: Antibiofilm activity against Pseudomonas aeruginosa PAO1 assessed as reduction in biofilm formation at 1/4 sub-MIC doses incubated for 24 hrs by crystal violet staining based analysis relative to control; assay type: functional; parameters: scale not given: the % may be the effect or the level left
Pseudomonas aeruginosa [19] = assay: Antibiofilm activity against Pseudomonas aeruginosa PAO1 assessed as reduction in biofilm formation at 16 ug/ml incubated for 2 to 4 hrs by crystal violet staining based analysis relative to control; assay type: functional; parameters: scale not given: the % may be the effect or the level left; details: dose 16 µg/ml; time 2-4 hrs
Pseudomonas aeruginosa [20] = assay: Antibiofilm activity against Pseudomonas aeruginosa PA21 assessed as reduction in biofilm formation at 1/4 sub-MIC doses incubated for 24 hrs by crystal violet staining based analysis relative to control; assay type: functional; parameters: scale not given: the % may be the effect or the level left
Pseudomonas aeruginosa [21] = assay: Antibiofilm activity against Pseudomonas aeruginosa PA23 assessed as reduction in biofilm formation at 1/2 sub-MIC doses incubated for 24 hrs by crystal violet staining based analysis relative to control; assay type: functional; parameters: scale not given: the % may be the effect or the level left
Pseudomonas aeruginosa [22] = assay: Antivirulence activity against Pseudomonas aeruginosa PA24 assessed as reduction in hemolysin activity incubated for 1 hr by absorbance based analysis relative to control; assay type: functional; parameters: scale not given: the % may be the effect or the level left
Pseudomonas aeruginosa [23] = assay: Antivirulence activity against Pseudomonas aeruginosa PA23 assessed as reduction in pyocyanin production incubated for 1 hr by absorbance based analysis relative to control; assay type: functional; parameters: scale not given: the % may be the effect or the level left
Pseudomonas aeruginosa [24] = assay: Antibiofilm activity against Pseudomonas aeruginosa PA14 assessed as reduction in biofilm formation at 1/2 sub-MIC doses incubated for 24 hrs by crystal violet staining based analysis relative to control; assay type: functional; parameters: scale not given: the % may be the effect or the level left
Pseudomonas aeruginosa [25] = assay: Antivirulence activity against Pseudomonas aeruginosa PA24 assessed as reduction in pyocyanin production incubated for 1 hr by absorbance based analysis relative to control; assay type: functional; parameters: scale not given: the % may be the effect or the level left
Pseudomonas aeruginosa [26] = assay: Antivirulence activity against Pseudomonas aeruginosa PA21 assessed as reduction in pyocyanin production incubated for 1 hr by absorbance based analysis relative to control; assay type: functional; parameters: scale not given: the % may be the effect or the level left
Pseudomonas aeruginosa [27] = assay: Antibiofilm activity against Pseudomonas aeruginosa PA24 assessed as reduction in biofilm formation at 1/4 sub-MIC doses incubated for 24 hrs by crystal violet staining based analysis relative to control; assay type: functional; parameters: scale not given: the % may be the effect or the level left
Pseudomonas aeruginosa [28] = assay: Antivirulence activity against Pseudomonas aeruginosa PA24 assessed as reduction in protease production incubated for 1 hr by absorbance based analysis relative to control; assay type: functional; parameters: scale not given: the % may be the effect or the level left
Pseudomonas aeruginosa [29] = assay: Antibiofilm activity against Pseudomonas aeruginosa PAO1 assessed as reduction in biofilm formation at 1/2 sub-MIC doses incubated for 24 hrs by crystal violet staining based analysis relative to control; assay type: functional; parameters: scale not given: the % may be the effect or the level left
Pseudomonas aeruginosa [30] = assay: Antibiofilm activity against Pseudomonas aeruginosa PA21 assessed as reduction in biofilm formation at 1/2 sub-MIC doses incubated for 24 hrs by crystal violet staining based analysis relative to control; assay type: functional; parameters: scale not given: the % may be the effect or the level left
Pseudomonas aeruginosa [31] = assay: Antibiofilm activity against Pseudomonas aeruginosa PA24 assessed as reduction in biofilm formation at 1/2 sub-MIC doses incubated for 24 hrs by crystal violet staining based analysis relative to control; assay type: functional; parameters: scale not given: the % may be the effect or the level left
Pseudomonas aeruginosa [32] = assay: Antivirulence activity against Pseudomonas aeruginosa PA23 assessed as reduction in protease production incubated for 1 hr by absorbance based analysis relative to control; assay type: functional; parameters: scale not given: the % may be the effect or the level left
Pseudomonas aeruginosa [33] = assay: Antibiofilm activity against Pseudomonas aeruginosa PA14 assessed as reduction in biofilm formation at 1/4 sub-MIC doses incubated for 24 hrs by crystal violet staining based analysis relative to control; assay type: functional; parameters: scale not given: the % may be the effect or the level left
Pseudomonas aeruginosa [34] = assay: Antivirulence activity against Pseudomonas aeruginosa PA22 assessed as reduction in pyocyanin production incubated for 1 hr by absorbance based analysis relative to control; assay type: functional; parameters: scale not given: the % may be the effect or the level left
Pseudomonas aeruginosa [35] = assay: Antivirulence activity against Pseudomonas aeruginosa PA22 assessed as reduction in hemolysin activity incubated for 1 hr by absorbance based analysis relative to control; assay type: functional; parameters: scale not given: the % may be the effect or the level left
Pseudomonas aeruginosa [36] = assay: Antivirulence activity against Pseudomonas aeruginosa PA21 assessed as reduction in hemolysin activity incubated for 1 hr by absorbance based analysis relative to control; assay type: functional; parameters: scale not given: the % may be the effect or the level left
Pseudomonas aeruginosa [37] = assay: Antivirulence activity against Pseudomonas aeruginosa PAO1 assessed as reduction in protease production incubated for 1 hr by absorbance based analysis relative to control; assay type: functional; parameters: scale not given: the % may be the effect or the level left
Pseudomonas aeruginosa [38] = assay: Antibiofilm activity against Pseudomonas aeruginosa assessed as reduction in biofilm formation incubated for 24 hrs relative to control; assay type: functional; parameters: scale not given: the % may be the effect or the level left
Pseudomonas aeruginosa [39] = assay: Antimicrobial activity against Pseudomonas aeruginosa assessed as reduction in microbial growth; assay type: functional, organism-based
Pseudomonas aeruginosa [40] = assay: Downregulation of rhlR mRNA expression in Pseudomonas aeruginosa PAO1 incubated for 4 hrs by RT-qPCR analysis; assay type: functional, organism-based; details: PAO1, 4 h
Pseudomonas aeruginosa [41] = assay: Downregulation of rhlI mRNA expression in Pseudomonas aeruginosa PAO1 incubated for 4 hrs by RT-qPCR analysis; assay type: functional, organism-based; details: PAO1, 4 h
Pseudomonas aeruginosa [42] = assay: Downregulation of lasR mRNA expression in Pseudomonas aeruginosa PAO1 incubated for 4 hrs by RT-qPCR analysis; assay type: functional, organism-based; details: PAO1, 4 h
Pseudomonas aeruginosa [43] = assay: Downregulation of pqsR mRNA expression in Pseudomonas aeruginosa PAO1 incubated for 4 hrs by RT-qPCR analysis; assay type: functional, organism-based; details: PAO1, 4 h
Pseudomonas aeruginosa [44] = assay: Anti-virulence activity against Pseudomonas aeruginosa assessed as reduction in pyocyanin production level at 100 uM incubated for 24 hrs by absorbance based assay relative to control; assay type: functional; parameters: scale not given: the % may be the effect or the level left
Pseudomonas aeruginosa [45] = assay: Antivirulence activity against Pseudomonas aeruginosa assessed as reduction in elastase level at 100 uM incubated for 24 hrs by elastin-Congo red staining based analysis relative to control; assay type: functional; parameters: scale not given: the % may be the effect or the level left
Pseudomonas aeruginosa [46] = assay: Downregulation of lasA mRNA expression in Pseudomonas aeruginosa PAO1 incubated for 4 hrs by RT-qPCR analysis; assay type: functional, organism-based; details: PAO1, 4 h
Pseudomonas aeruginosa [47] = assay: Anti-virulence activity against Pseudomonas aeruginosa assessed as reduction in protease production level at 100 uM incubated for 24 hrs by absorbance based assay relative to control; assay type: functional; parameters: scale not given: the % may be the effect or the level left
Pseudomonas aeruginosa [48] = assay: Downregulation of lasB mRNA expression in Pseudomonas aeruginosa PAO1 incubated for 4 hrs by RT-qPCR analysis; assay type: functional, organism-based; details: PAO1, 4 h

O=C(/C=C/c1ccc(O)c(O)c1)c1ccc(O)cc1O [BUTEIN]
Activity (Pseudomonas aeruginosa [1]): 72.45%
IC50 (Pseudomonas aeruginosa [2]): 50 µM

Oc1ncnc2[nH]ncc12 [ALLOPURINOL]
MIC (Pseudomonas aeruginosa [3]): 2 µg/mL (≈ 14.7 µM)
Activity (Pseudomonas aeruginosa [4]): 74%
Activity (Pseudomonas aeruginosa [5]): 70%
Activity (Pseudomonas aeruginosa [6]): 74%

COC(=O)c1cc(O)c(O)c(O)c1 [GALLIC ACID METHYL ESTER]
Activity (Pseudomonas aeruginosa [7]): 53.6%
Activity (Pseudomonas aeruginosa [8]): 82.2%
Activity (Pseudomonas aeruginosa [9]): 60.5%
Activity (Pseudomonas aeruginosa [10]): 63.9%
Activity (Pseudomonas aeruginosa [11]): 40.1%
Activity (Pseudomonas aeruginosa [12]): 47.3%
Activity (Pseudomonas aeruginosa [13]): 66.5%
Activity (Pseudomonas aeruginosa [14]): 49.8%
Activity (Pseudomonas aeruginosa [15]): 81.5%
Activity (Pseudomonas aeruginosa [16]): 77.9%
Activity (Pseudomonas aeruginosa [17]): 68.1%
Activity (Pseudomonas aeruginosa [18]): 77.6%
Activity (Pseudomonas aeruginosa [19]): 63%
Activity (Pseudomonas aeruginosa [20]): 77.8%
Activity (Pseudomonas aeruginosa [21]): 83.8%
Activity (Pseudomonas aeruginosa [22]): 55.7%
Activity (Pseudomonas aeruginosa [23]): 79.6%
Activity (Pseudomonas aeruginosa [24]): 81.6%
Activity (Pseudomonas aeruginosa [25]): 78.7%
Activity (Pseudomonas aeruginosa [26]): 87.3%
Activity (Pseudomonas aeruginosa [27]): 78.1%
Activity (Pseudomonas aeruginosa [28]): 42.4%
Activity (Pseudomonas aeruginosa [29]): 83%
Activity (Pseudomonas aeruginosa [30]): 83.3%
Activity (Pseudomonas aeruginosa [31]): 83.7%
Activity (Pseudomonas aeruginosa [32]): 27.6%
Activity (Pseudomonas aeruginosa [33]): 78.6%
Activity (Pseudomonas aeruginosa [34]): 80.9%
Activity (Pseudomonas aeruginosa [35]): 57.8%
Activity (Pseudomonas aeruginosa [36]): 63.2%
Activity (Pseudomonas aeruginosa [37]): 40.3%

CCOP(=O)(NCCCCOc1cc(O)c2c(=O)cc(-c3ccccc3)oc2c1)OCC
Activity (Pseudomonas aeruginosa [38]): 78%
IC50 (Pseudomonas aeruginosa [39]): 100 µM
IC50 (Pseudomonas aeruginosa [40]): 100 µM
IC50 (Pseudomonas aeruginosa [41]): 100 µM
IC50 (Pseudomonas aeruginosa [42]): 100 µM
IC50 (Pseudomonas aeruginosa [43]): 100 µM
Activity (Pseudomonas aeruginosa [44]): 63.8%
Activity (Pseudomonas aeruginosa [45]): 42.2%
IC50 (Pseudomonas aeruginosa [46]): 100 µM
Activity (Pseudomonas aeruginosa [47]): 18.8%
IC50 (Pseudomonas aeruginosa [48]): 100 µM
